Experimental data reported in patent US6369057B1, “Quinoxalines, processes for their preparation and their use” (Aventis Pharma Deutschland GmbH, priority 1991, dated 2002).
≈ marks a conversion by molar mass, not a printed value. Where a name gives a salt, the structure may show the parent alone.

What was measured:
[1] = system: HIV; experiment: Test of preparations against HIV in cell culture (T-cell culture assay); assay type: cell-based; details: lowest concentration where no giant cells were observed, HIV-infected lymphocytes from donor blood, 3 days at 37° C.; for MIC: Human immunodeficiency virus 1, 72 h
Protocol: Test of Preparations Against HIV in Cell Culture
Complete medium additionally contains 20% fetal calf serum and 40 IU/ml recombinant interleukin 2.
Lymphocytes which have been isolated from fresh donor blood by means of Ficoll gradient centrifugation are cultured for 36 hours in complete medium with an addition of 2 μg/ml phytohemagglutinin (Wellcome) at 37° C. under 5% of CO2. After 10% of DMSO has been added, the cells are frozen at a density of 5 [formula]10^6 and stored in liquid nitrogen. For the test, the cells are defrosted, washed in RPMI medium and cultured for 3-4 days in the complete medium.
The test preparations were dissolved in DMSO at a concentration of 16.7 mg/ml and diluted in complete medium to 1 mg/ml.
0.4 ml of medium was introduced into 24-multiwell dishes. 0.1 ml of the dissolved preparation was added to the upper row of the dish, and, by transferring 0.1 ml portions, a geometric dilution series was established. Controls without preparation always contained 0.4 ml of complete medium containing 0.5% of DMSO. Lymphocyte cultures with a cell density of 5 [formula]10^5 cells/ml were infected by adding 1/50 volume supernatant from HIV-infected lymphocyte cultures. The titer of these culture supernatants was determined by end-point titration as 1-5 [formula]10^6 infectious units/ml. After 30 minutes' incubation at 37° C., the infected lymphocytes were removed by centrifugation and taken up in an equal volume of medium. From this cell suspension, 0.6 ml aliquots were transferred into all wells of the test plate. The mixtures were incubated for 3 days at 37° C.
The infected cell cultures were examined under the microscope for the presence of giant cells, which indicate active virus multiplication in the culture. The lowest concentration of preparation where no giant cells were observed was determined as inhibitory concentration against HIV. As a control, the supernatants from the culture plates were tested for the presence of HIV antigen with the aid of an HIV antigen test following the manufacturer's instructions (Organon).

[2] = target: T1, HIV reverse transcriptase (RT) (Human immunodeficiency virus type 1 group M subtype B, UniProt P03366); experiment: Assay for HIV reverse transcriptase inhibition (scintillation proximity assay); assay type: biochemical; details: RT from HIV cloned in E. coli; SPA, 60 minutes (37° C.)
T1 construct: The enzyme RT (from HIV cloned in E. coli); purchased HT-Biotechnology Ltd, Cambridge, UK; host or cells: E. coli
Protocol: Assay of the Substances for HIV Reverse Transcriptase Inhibition
The activity of reverse transcriptase (RT) was determined with the aid of a scintillation proximity assay (SPA).
The reagent kit for the RT-SPA was obtained from Amersham/Buchler (Braunschweig).
The enzyme RT (from HIV cloned in E. coli) originated from HT-Biotechnology Ltd, Cambridge, UK.
The assay was carried out using the manufacturer's (Amersham) protocol manual, with the following modifications: bovine serum albumin was added to the assay buffer to give an end concentration of 0.5 mg/ml the assay was carried out in Eppendorf reaction vessels, using 100 μl volume per batch the manufacturer's RT concentrate (5000 U/ml) was diluted in Tris-HCl buffer 20 mM; pH 7.2; 30% of glycerol, to an activity of 15 U per ml the incubation time for the mixtures was 60 minutes (37° C.) after stopping the reaction and “developing” with the bead suspension, 130 μl of mixture were transferred to 4.5 ml of Tris-HCl buffer, 10 mM; pH 7.4; 0.15 M NaCl, and the tritium activity was measured by means of a [formula]-counter.
For a pre-assay for inhibitory activity, the substances were dissolved in DMSO (stock solution c=1 mg/ml), and tested as a 10^−1, 10^−2, 10^−3, etc., dilution in DMSO.
To determine IC50 values, the inhibitor stock solutions were diluted further in Tris-HCl buffer, 50 mM, pH 8, and tested in suitable concentrations.
The concentration corresponding to a 50% enzyme inhibition was determined from a plot of RT activity versus log Clnh.

SMILES	melting point	MIC [1] [µg/mL]	T-cell culture assay MIC [1] [µg/mL]	Reverse Transcriptase Assay IC50 [2]
O=C1Nc2cc(Cl)ccc2N[C@H]1Cc1ccccc1 [Example II, (3S)-3-Benzyl-7-chloro-3,4-dihydroquinoxalin-2(1H)-one]	185 °C			
O=C1CNc2ccc(S(=O)(=O)Oc3ccccc3)cc2N1 [XXIX, 7-Phenoxysulfonyl-3,4-dihydroquinoxalin-2(1H)-one]	253 to 254 °C			
C[C@H]1C(=O)Nc2c(cc(Cl)cc2[N+](=O)[O-])N1C(=O)OCc1ccccc1 [Example IV, (3S)-4-N-(Benzyloxycarbonyl)-6-chloro-3-methyl-8-nitro-3,4-dihydroquinoxalin-2(1H)-one]	85 °C	> 0.8		
COc1ccc(OC(=O)N2c3cc(Cl)ccc3NC(=O)[C@@H]2C)cc1 [IX, (3S)-6-Chloro-4-N-(4-methoxyphenoxycarbonyl)-3-methyl-3,4-dihydroquinoxalin-2(1H)-one]	187 to 190 °C			
COc1cc2c(cc1OC)NC(C)C(=O)N2 (stereo not drawn) [Example XVII, 6,7-Dimethoxy-3-methyl-3,4-dihydroquinoxalin-2(1H)-one]	151 °C			
C=C(C)OC(=O)N1c2ccc(C)cc2NC(=O)C1(C)C [VIII, 4-N-(Isopropenyloxycarbonyl)-3,3,7-trimethyl-3,4-di-hydroquinoxalin-2(1H)-one]	185 °C			
COCCOC(=O)N1c2cc(Cl)ccc2NC(=O)[C@@H]1C [XXXVI, (3S)-6-Chloro-4-N-(2-methoxyethoxycarbonyl)-3-methyl-3,4-dihydroquinoxalin-2(1H)-one]	93 to 94 °C			
CC(C)=CCN1c2ccccc2NC(=O)C1C (racemic) [XXV, (3RS)-3-Methyl-4-N-(3-methyl-2-buten-1-yl)-3,4-dihydroquinoxalin-2(1H)-one]	92 to 93 °C			
CC(=O)CCN1c2ccccc2NC(=O)C1C (racemic) [XXXIV, (3RS)-3-Methyl-4-N-(3-oxo-1-butyl)-3,4-dihydroquinoxalin-2(1H)-one]	108 to 109 °C			
C[C@H]1C(=O)Nc2ccc(Cl)cc2N1C(=O)Oc1ccc(F)cc1 [Example X, (3S)-6-Chloro-4-N-(4-fluorophenoxycarbonyl)-3-methyl-3,4-dihydroquinoxalin-2(1H)-one]	168 to 170 °C	0.8 (≈ 2.39 µM)		
C[C@H]1C(=O)Nc2ccc(Cl)cc2N1C(=O)Oc1ccc(Cl)cc1 [Example XI, (3S)-6-Chloro-4-N-(4-chlorophenoxycarbonyl)-3-methyl-3,4-dihydroquinoxalin-2(1H)-one]	185 to 188 °C			
CC(C)=CCN1CC(=O)Nc2cc(S(=O)(=O)Oc3ccccc3)ccc21 [Example XXX, 4-(3-Methyl-2-buten-1-yl)-7-phenoxysulfonyl-3,4-dihydroquinoxalin-2(1H)-one]	132 °C			
C[C@H]1C(=O)Nc2ccc(Cl)cc2N1C(=O)Cl [Example XXXV, (3S)-6-Chloro-4-N-chlorocarbonyl-3-methyl-3,4-dihydroquinoxalin-2(1H)-one]	142 to 144 °C			
O=C1Nc2cc(S(=O)(=O)Oc3ccccc3)ccc2N2C(=O)CCC12 (stereo not drawn) [XXVII, 7-Phenoxysulfonyl-3,3a-dihydropyrrolo[1,2-a]quinoxaline-1,4(2H,5H)-dione]	140 °C (dec.)			
CC1(C)Nc2ccc(Cl)cc2N(C2CC2)C1=O [XIX, 7-Chloro-1-N-(cyclopropyl)-3,3-dimethyl-3,4-dihydroquinoxalin-2(1H)-one]	132 to 133 °C			
CC1C(=O)Nc2ccc(Cl)cc2N1C1CC1 (racemic) [Example XVIII, (3RS)-6-Chloro-4-N-(cyclopropyl)-3-methyl-3,4-dihydroquinoxalin-2(1H)-one]	167 °C			
C[C@H]1Nc2cc(Cl)ccc2NC1=O [Example IC, (3R)-6-Chloro-3-methyl-3,4-dihydroquinoxalin-2(1H)-one]	123 to 124 °C			
C=C(C)OC(=O)N1c2cc(Cl)ccc2NC(=S)C1CC (stereo not drawn) [Example 7-14]			<0.08	0.01 to 0.1 µg/mL
CC1C(=O)Nc2ccc(Cl)cc2N1Cc1cccc([N+](=O)[O-])c1 (stereo not drawn) [Example 10-17]			0.8	approx. 1 μg/ml

SMILES	melting point	MIC [1] [µg/mL]	T-cell culture assay MIC [1] [µg/mL]	Reverse Transcriptase Assay IC50 [2]
CSCC1C(=O)Nc2ccc(Cl)cc2N1CC=C(C)C (stereo not drawn) [Example 3-75]			<0.8	0.1 to 1 µg/mL
CC(C)=CCN1c2cc(C)c(C)cc2NC(=S)C1(C)C [Example 7-16]			0.4	approx. 1 μg/ml
C=CC(C)(C)C1C(=O)Nc2ccc(Cl)cc2N1CC=C(C)C (stereo not drawn) [Example XVI, 6-Chloro-4-N-(3-methyl-2-buten-1-yl)-3-(1,1-dimethyl-2-propen-1-yl)-3,4-dihydroquinoxalin-2(1H)-one]	110 to 112 °C			
CCOC(=O)N1c2cc(Cl)ccc2NC(=O)C1C (stereo not drawn) [Example 3-23]			0.08	0.1 to 1 µg/mL
CC1C(=O)Nc2ccc(Cl)cc2N1Cc1ccccc1Cl (stereo not drawn) [Example 10-21]			<0.8	0.1 to 1 µg/mL
C=C(C)OC(=O)N1c2cc(Cl)ccc2NC(=O)C1CC(C)C (stereo not drawn) [Example 3-49]			<0.8	approx. 1 μg/ml
C=C(C)OC(=O)N1c2ccc(Cl)cc2NC(=O)C1C(C)C (stereo not drawn) [Example 3-57]			<0.8	approx. 1 μg/ml
CC(C)=CCN1CC(=O)Nc2ccc(Cl)cc21 [Example XV, 6-Chloro-4-N-(3-methyl-2-buten-1-yl)-3,4-dihydro-quinoxalin-2(1H)-one]	150 to 151 °C			
CCCOC(=O)N1c2cc(Cl)ccc2NC(=O)C1C (stereo not drawn) [Example 3-24]			0.08	0.1 to 1 µg/mL
CCCCOC(=O)N1c2cc(Cl)ccc2NC(=O)C1C (stereo not drawn) [Example 3-25]			0.4	0.1 to 1 µg/mL
C=C(C)OC(=O)N1c2ccc(C)c(C)c2NC(=O)C1(C)C [Example 6-35]			<0.08	0.1 to 1 µg/mL
C=CCOC(=O)N1c2cc(Cl)ccc2NC(=S)C1C (stereo not drawn) [Example 7-10]			<0.04	0.11 µg/mL
CC(C)OC(=O)N1c2cc(Cl)ccc2NC(=O)C1C (stereo not drawn) [Example 11-11]			0.01	0.1 to 1 µg/mL
CC(C)=CCN1c2cc(Cl)ccc2NC(=O)C1(C)C [Example 6-1]			0.4	approx. 1 μg/ml
C[C@@H]1Nc2cc(Cl)ccc2NC1=O [Example IB, (3S)-6-Chloro-3-methyl-3,4-dihydroquinoxalin-2(1H)-one]	122 to 123 °C			
CC(C)CC1Nc2c(S(=O)(=O)Oc3ccccc3)ccc(N3CCN(C)CC3)c2NC1=O (stereo not drawn) (as salt: hydrochloride) [XXXII, 8-(4-Methyl-1-piperazinyl)-3-(2-methylpropyl)-5-phenoxysulfonyl-3,4-dihydroquinoxalin-2(1H)-one]	≥ 90 °C (dec.)			
C=CCOC(=O)N1c2cc(Cl)ccc2NC(=O)C1CC (stereo not drawn) [Example 3-32]			<0.4	approx. 0.1 μg/ml
CC(C)=CCN1c2cc(Cl)ccc2NC(=S)C1(C)C [Example 7-7]			0.04	0.1 µg/mL
C=C(C)OC(=O)N1c2cc(Cl)ccc2NC(=O)C1C(C)CC (stereo not drawn) [Example 3-81]			0.08	approx. 1 μg/ml
